Test results reported in US20080145858A1, “DETECTION AND IDENTIFICATION OF TOXICANTS BY MEASUREMENT OF GENE […]” (priority 2003, published 2008).

Test system: Xenopus laevis cleavage stage embryos (stage 8)
Test: Xenopus cDNA microarray, differential gene expression after PMA treatment during cleavage stage (Group I)
Format: in vivo
Conditions: PMA 100 ng/ml, stage 8
Excerpt: Specifically, the method and screen of the present invention function as follows. EST clones produced from Xenopus laevis unfertilized eggs were used in the present study with ˜1,200 EST clones from a 18,500 EST clone set selected for production of a Xenopus cDNA microarray. The Xenopus microarray was used to measure the effect of chemical treatment on Xenopus embryo gene regulation. The chemical treatment was a phorbol ester, PMA. Xenopus eggs were obtained from females induced for ovulation and fertilized in vitro. Control Xenopus laevis embryos were allowed to develop to stage 8 blastula or stage 15 neurula. Treated embryos were exposed to PMA during cleavage stage or during neurulation with end points of blastula (stage 8) or neurula (stage 15). Specifically, PMA 100 ng/ml was added to the incubation media during cleavage stages for evaluation in stage 8 embryo or PMA was added during neural induction for evaluation in stage 15 embryos. RNA extracted from the embryos was used to generate fluorescent cDNA probes for Xenopus microarray analyses to measure differential gene expression with and without the phorbol ester treatment. Analysis was performed using paired RNA samples to compare PMA-treated and untreated embryos: Group I measured the effects of PMA-treatment during the cleavage stage in stage 8 embryos and Group II measured the effects of PMA-treatment during neurulation in stage 15 embryos. Group III measured the change in gene expression between stage 8 and stage 15 embryos.
cDNA fragments were obtained by PCR replication of Xenopus laevis unfertilized egg cDNA inserts, purified, quantitated and loaded onto glass chips by robotics. In addition to the selected ˜1,200 genes, 64 lambda Q gene, an internal control cDNA (Genomic Solutions, Inc., Ann Arbor, Mich.) was loaded on the chip. The insert DNA from ˜1,200 clones were PCR amplified using forward and reverse primers (GF.200 primers, Research Genetics, Huntsville, Ala.). A second PCR was carried out using 1 μl of the primary PCR (20 μl) for template. Excess dNTPs, polymerase and other PCR artifacts were removed from the secondary PCR reactions using Millipore Multiscreen plates (Millipore Corporation, Bedford, Mass.) using the standard protocol. The purity of the PCR products was assessed by electrophoresis and documented using an Alphalmager 1000 Digital Imaging System (Alpha Innotech Corporation, San Leandro, Calif.). The DNA obtained by PCR was quantitated using PicoGreen (Molecular Probes, Eugene, Oreg.). The DNA was denatured and arrayed onto amino-silane coated microscope slides (CMT-GAPS coated slides, Corning, Corning, N.Y.) using a Flexys robotic workstation (Genomic Solutions Inc.). The ˜1,200 PCR products were arrayed in duplicate on each slide and cross-linked. Each gene chip contained duplicate cDNA samples.
Total RNA was prepared from embryos treated in three separate dishes per treatment group that were pooled. Total RNA was isolated from the frog embryos (1,200 embryos for each probe production) using TRIzol extraction (Gibco BRL, Grand Island, N.Y.) and Qiagen RNeasy kits (Qiagen, Valencia, Calif.). The ethanol precipitated RNA was resuspended in RNase-free water, quantitated with RiboGreen (Molecular Probes, Eugene, Oreg.). Total RNA was further purified using oligoTex mRNA maxi kit (Qiagen Co.) with the bound mRNA eluted with minimum volume of elution buffer and precipitated with ethanol. The recovery rate of mRNA by the ethanol precipitation method was ˜70%. Cy3- or Cy5-tagged probes were produced from an mRNA mixture (20 μl) of Xenopus mRNA (5 μg) and lambda Q gene mRNA (3.5 ng) reverse-transcribed with oligo(dT)18-22 primer and dNTPs and the reverse-transcribed cDNA was cross-linked with Cy3 or Cy5 as described in Clontech Atlas™ Glass Fluorescent Labeling kit manual (www.clontech.com). After hydrolysis of the RNA and purification of the probe (Centricon 50, Millipore, Bedford, Mass.), the cDNA in TE buffer was quantitated by absorbance at 260 nm. […]

Structure (SMILES): CCCCCCCCCCCCCC(=O)O[C@@H]1[C@@H](C)[C@@]2(O)[C@@H](C=C(CO)C[C@]3(O)C(=O)C(C)=C[C@@H]23)[C@@H]2C(C)(C)[C@]12OC(C)=O [PMA, phorbol 12-myristate 12-acetate]
- Normalized by Landmarks (1.59) (PBX0140D01 mRNA): 3.66
- Normalized by all Data Points (1.28) (PBX0140D01 mRNA): 2.94
- Ratio of Medians (Cy5/Cy3) First Spot (PBX0140D01 mRNA): 2.09
- Ratio of Medians (Cy5/Cy3) Mean (PBX0140D01 mRNA): 2.30 ± 0.20
- Ratio of Medians (Cy5/Cy3) Second Spot (PBX0140D01 mRNA): 2.50
- (CY3/CY5) by Landmarks (1.6) (PBX0140F01 mRNA): 2.39
- (CY3/CY5) by all Data Points (1.3) (PBX0140F01 mRNA): 3.83
- Normalization by Landmarks (1.6) (PBX0140F01 mRNA): 0.42
- Normalization by all Data Points (1.3) (PBX0140F01 mRNA): 0.26
- Ratio of Medians (Cy5/Cy3) First Spot (PBX0140F01 mRNA): 0.24
- Ratio of Medians (Cy5/Cy3) Mean (PBX0140F01 mRNA): 0.20 ± 0.04
- Ratio of Medians (Cy5/Cy3) Second Spot (PBX0140F01 mRNA): 0.16
- (CY3/CY5) by Landmarks (1.6) (PBX0140H03 mRNA): 3.52
- (CY3/CY5) by all Data Points (1.3) (PBX0140H03 mRNA): 5.64
- Normalization by Landmarks (1.6) (PBX0140H03 mRNA): 0.28
- Normalization by all Data Points (1.3) (PBX0140H03 mRNA): 0.18
- Ratio of Medians (Cy5/Cy3) First Spot (PBX0140H03 mRNA): 0.09
- Ratio of Medians (Cy5/Cy3) Mean (PBX0140H03 mRNA): 0.14 ± 0.05
- Ratio of Medians (Cy5/Cy3) Second Spot (PBX0140H03 mRNA): 0.19
- (CY3/CY5) by Landmarks (1.6) (PBX0141B03 mRNA): 1.74
- (CY3/CY5) by all Data Points (1.3) (PBX0141B03 mRNA): 2.78
- Normalization by Landmarks (1.6) (PBX0141B03 mRNA): 0.58
- Normalization by all Data Points (1.3) (PBX0141B03 mRNA): 0.36
- Ratio of Medians (Cy5/Cy3) First Spot (PBX0141B03 mRNA): 0.38
- Ratio of Medians (Cy5/Cy3) Mean (PBX0141B03 mRNA): 0.28 ± 0.10
- Ratio of Medians (Cy5/Cy3) Second Spot (PBX0141B03 mRNA): 0.18
- (CY3/CY5) by Landmarks (1.6) (PBX0141F12 mRNA): 3.56
- (CY3/CY5) by all Data Points (1.3) (PBX0141F12 mRNA): 5.70
- Normalization by Landmarks (1.6) (PBX0141F12 mRNA): 0.28
- Normalization by all Data Points (1.3) (PBX0141F12 mRNA): 0.18
- Ratio of Medians (Cy5/Cy3) First Spot (PBX0141F12 mRNA): 0.10
- Ratio of Medians (Cy5/Cy3) Mean (PBX0141F12 mRNA): 0.14 ± 0.03
- Ratio of Medians (Cy5/Cy3) Second Spot (PBX0141F12 mRNA): 0.17
- (CY3/CY5) by Landmarks (1.6) (PBX0141G06 mRNA): 1.67
- (CY3/CY5) by all Data Points (1.3) (PBX0141G06 mRNA): 2.67
- Normalization by Landmarks (1.6) (PBX0141G06 mRNA): 0.60
- Normalization by all Data Points (1.3) (PBX0141G06 mRNA): 0.38
- Ratio of Medians (Cy5/Cy3) First Spot (PBX0141G06 mRNA): 0.17
- Ratio of Medians (Cy5/Cy3) Mean (PBX0141G06 mRNA): 0.29 ± 0.12
- Ratio of Medians (Cy5/Cy3) Second Spot (PBX0141G06 mRNA): 0.41
- Normalized by Landmarks (1.59) (PBX0141G10 mRNA): 4.98
- Normalized by all Data Points (1.28) (PBX0141G10 mRNA): 4.01
- Ratio of Medians (Cy5/Cy3) First Spot (PBX0141G10 mRNA): 2.53
- Ratio of Medians (Cy5/Cy3) Mean (PBX0141G10 mRNA): 3.13 ± 0.59
- Ratio of Medians (Cy5/Cy3) Second Spot (PBX0141G10 mRNA): 3.72
- (CY3/CY5) by Landmarks (1.6) (PBX0142E01 mRNA): 2.64
- (CY3/CY5) by all Data Points (1.3) (PBX0142E01 mRNA): 4.23
- Normalization by Landmarks (1.6) (PBX0142E01 mRNA): 0.38
- Normalization by all Data Points (1.3) (PBX0142E01 mRNA): 0.24
- Ratio of Medians (Cy5/Cy3) First Spot (PBX0142E01 mRNA): 0.14
- Ratio of Medians (Cy5/Cy3) Mean (PBX0142E01 mRNA): 0.18 ± 0.04
- Ratio of Medians (Cy5/Cy3) Second Spot (PBX0142E01 mRNA): 0.22
- Normalized by Landmarks (1.59) (PBX0142E09 mRNA): 4.32
- Normalized by all Data Points (1.28) (PBX0142E09 mRNA): 3.48
- Ratio of Medians (Cy5/Cy3) First Spot (PBX0142E09 mRNA): 2.50
- Ratio of Medians (Cy5/Cy3) Mean (PBX0142E09 mRNA): 2.72 ± 0.21
- Ratio of Medians (Cy5/Cy3) Second Spot (PBX0142E09 mRNA): 2.93
- (CY3/CY5) by Landmarks (1.6) (PBX0142H06 mRNA): 2.52
- (CY3/CY5) by all Data Points (1.3) (PBX0142H06 mRNA): 4.04
- Normalization by Landmarks (1.6) (PBX0142H06 mRNA): 0.40
- Normalization by all Data Points (1.3) (PBX0142H06 mRNA): 0.25
- Ratio of Medians (Cy5/Cy3) First Spot (PBX0142H06 mRNA): 0.15
- Ratio of Medians (Cy5/Cy3) Mean (PBX0142H06 mRNA): 0.19 ± 0.04
- Ratio of Medians (Cy5/Cy3) Second Spot (PBX0142H06 mRNA): 0.23
- (CY3/CY5) by Landmarks (1.6) (PBX0143C01 mRNA): 2.54
- (CY3/CY5) by all Data Points (1.3) (PBX0143C01 mRNA): 4.07
- Normalization by Landmarks (1.6) (PBX0143C01 mRNA): 0.39
- Normalization by all Data Points (1.3) (PBX0143C01 mRNA): 0.25
- Ratio of Medians (Cy5/Cy3) First Spot (PBX0143C01 mRNA): 0.16
- Ratio of Medians (Cy5/Cy3) Mean (PBX0143C01 mRNA): 0.19 ± 0.03
- Ratio of Medians (Cy5/Cy3) Second Spot (PBX0143C01 mRNA): 0.22
- (CY3/CY5) by Landmarks (1.6) (PBX0143D10 mRNA): 1.57
- (CY3/CY5) by all Data Points (1.3) (PBX0143D10 mRNA): 2.51
